# Target: human σ1 receptor (Homo sapiens, UniProt Q99720)
# Test: biochemical
# Assay type: binding
# Design: μ and σ1 dual (binding to the σ1 receptor and the μ-opioid receptor expressed as Ki): key to the marks not given beside the values
# Sequence of human σ1 receptor (Q99720 whole entry): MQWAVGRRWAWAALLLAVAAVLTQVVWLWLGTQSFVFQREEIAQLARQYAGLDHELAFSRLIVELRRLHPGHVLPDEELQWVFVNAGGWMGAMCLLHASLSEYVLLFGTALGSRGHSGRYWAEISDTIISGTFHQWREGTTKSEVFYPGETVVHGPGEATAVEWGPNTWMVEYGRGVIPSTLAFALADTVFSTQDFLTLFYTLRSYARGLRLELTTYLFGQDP
Structure (SMILES),μ and σ1 dual (binding to the σ1 receptor and the μ-opioid receptor expressed as Ki),Ki [nM]
"CC(=O)N(CC1(N2CCN(CC(C)C)CC2)CCOCC1)c1cccc(C(F)(F)F)n1 [Example 40, N-((4-(4-isobutylpiperazin-1-yl)tetrahydro-2H-pyran-4-yl)methyl)-N-(6-(trifluoromethyl)pyridin-2-yl)acetamide]",++,–
"CCC(=O)N(CC1(N2CCN(Cc3ccccn3)CC2)CCOCC1)c1ccccc1 [Example 102, N-phenyl-N-((4-(4-(pyridin-2-ylmethyl)piperazin-1-yl)tetrahydro-2H-pyran-4-yl)methyl)propionamide]",–,> 500
"O=C(c1cccs1)N(CC1(N2CCN(Cc3ccccc3)CC2)CC1)c1ccccn1 [Example 47, N-((1-(4-benzylpiperazin-1-yl)cyclopropyl)methyl)-N-(pyridin-2-yl)thiophene-2-carboxamide]",++,–
"CCC(=O)N(CC1(N2CCN(Cc3ccccc3)CC2)CCOC2(CCCC2)C1)c1ccccn1 (stereo not shown) [Example 17, N-((9-(4-benzylpiperazin-1-yl)-6-oxaspiro[4.5]decan-9-yl)methyl)-N-(pyridin-2-yl)propionamide]",–,< 500
"CCC(=O)N(CC1(N2CCN(Cc3ccc(C(=O)NC)cc3)CC2)CCOCC1)c1ccccc1 [Example 125, N-methyl-4-((4-(4-((N-phenylpropionamido)methyl)tetrahydro-2H-pyran-4-yl)piperazin-1-yl)methyl)benzamide]",++,–
"CCC(=O)N(CC1(N2CCN(Cc3ccccc3)CC2)CC1)c1cccnc1C(F)(F)F [Example 76, N-((1-(4-benzylpiperazin-1-yl)cyclopropyl)methyl)-N-(2-(trifluoromethyl)pyridin-3-yl)propionamide]",–,< 500
"CCC(=O)N(CC1(N2CCN(Cc3cccc(F)c3)CC2)CC1)c1ccccc1 [Example 116, N-((1-(4-(3-fluorobenzyl)piperazin-1-yl)cyclopropyl)methyl)-N-phenylpropionamide]",–,< 100
"CCC(=O)N(CC1(N2CCN(CCC(C)C)CC2)CCOC(C)(C)C1)c1ccccn1 (stereo not shown) [Example 164, N-((4-(4-isopentylpiperazin-1-yl)-2,2-dimethyltetrahydro-2H-pyran-4-yl)methyl)-N-(pyridin-2-yl)propionamide]",++,–
"CCC(=O)N(CC1(N2CCN(CCN3CCOCC3)CC2)CCOCC1)c1cccc(C(F)(F)F)n1 [Example 184, N-((4-(4-(2-morpholinoethyl)piperazin-1-yl)tetrahydro-2H-pyran-4-yl)methyl)-N-(6-(trifluoromethyl)pyridin-2-yl)propionamide]",–,> 500
"CCC(=O)N(CC1(N2CCN(C(C)CC)CC2)CCOCC1)c1cccc(C(F)(F)F)n1 (stereo not shown) [Example 139, N-((4-(4-sec-butylpiperazin-1-yl)tetrahydro-2H-pyran-4-yl)methyl)-N-(6-(trifluoromethyl)pyridin-2-yl)propionamide]",++,–
"CCC(=O)N(CC(C)(C)N1CCN(CCOC(C)C)CC1)c1ncccc1F [Example 73, N-(3-fluoropyridin-2-yl)-N-(2-(4-(2-isopropoxyethyl)piperazin-1-yl)-2-methylpropyl)propionamide]",++,–
"CCC(=O)N(CC1(N2CCN(CCc3ccncc3)CC2)CCOCC1)c1cccc(C(F)(F)F)n1 [Example 206, N-((4-(4-(2-(pyridin-4-yl)ethyl)piperazin-1-yl)tetrahydro-2H-pyran-4-yl)methyl)-N-(6-(trifluoromethyl)pyridin-2-yl)propionamide]",–,< 500
"CCC(=O)N(CC1(N2CCN(CCOC(C)C)CC2)CCOCC1)c1ncccc1F [Example 157, N-(3-fluoropyridin-2-yl)-N-((4-(4-(2-isopropoxyethyl)piperazin-1-yl)tetrahydro-2H-pyran-4-yl)methyl)propionamide]",–,< 500
"CCC(=O)N(CC1(N2CCN(CCC(C)C)CC2)CCOC(C)(C)C1)c1cccc(C#N)n1 (stereo not shown) [Example 88, N-(6-cyanopyridin-2-yl)-N-((4-(4-isopentylpiperazin-1-yl)-2,2-dimethyltetrahydro-2H-pyran-4-yl)methyl)propionamide]",++,–
"CCC(=O)N(CC1(N2CCN(Cc3ccccc3)CC2)CCOCC1)c1cccc(C#N)c1 [Example 57, N-((4-(4-benzylpiperazin-1-yl)tetrahydro-2H-pyran-4-yl)methyl)-N-(3-cyanophenyl)propionamide]",++,–
"CCC(=O)N(CC1(N2CCN(CC(C)C)CC2)CCSCC1)c1cccc(C(F)(F)F)n1 [Example 204, N-((4-(4-isobutylpiperazin-1-yl)tetrahydro-2H-thiopyran-4-yl)methyl)-N-(6-(trifluoromethyl)pyridin-2-yl)propionamide]",–,< 500
"CCC(=O)N(CC1(N2CCN(C(C)COC)CC2)CCOCC1)c1cccc(C(F)(F)F)n1 (stereo not shown) [Example 112, N-((4-(4-(1-methoxypropan-2-yl)piperazin-1-yl)tetrahydro-2H-pyran-4-yl)methyl)-N-(6-(trifluoromethyl)pyridin-2-yl)propionamide]",++,–

Structure (SMILES),μ and σ1 dual (binding to the σ1 receptor and the μ-opioid receptor expressed as Ki),Ki [nM]
"CCC(=O)N(CC1(N2CCN(Cc3ccccc3)CC2)CCOCC1)c1ncccc1F [Example 82, N-((4-(4-benzylpiperazin-1-yl)tetrahydro-2H-pyran-4-yl)methyl)-N-(3-fluoropyridin-2-yl)propionamide]",–,< 100
"CCC(=O)N(CC1(N2CCN(Cc3ccccc3)CC2)CCOC(C)(C)C1)c1cccc(C#N)n1 (stereo not shown) [Example 65, N-((4-(4-benzylpiperazin-1-yl)-2,2-dimethyltetrahydro-2H-pyran-4-yl)methyl)-N-(6-cyanopyridin-2-yl)propionamide]",–,< 500
"CCC(=O)N(CC1(N2CCN(Cc3ccccc3)CC2)CCOCC1)c1ccccc1F [Example 4, N-((4-(4-benzylpiperazin-1-yl)tetrahydro-2H-pyran-4-yl)methyl)-N-(2-fluorophenyl)propionamide]",–,< 100
"CCC(=O)N(CC1(N2CCN(Cc3ccccc3F)CC2)CCOCC1)c1ccccc1 [Example 104, N-((4-(4-(2-fluorobenzyl)piperazin-1-yl)tetrahydro-2H-pyran-4-yl)methyl)-N-phenylpropionamide]",–,< 500
"CCC(=O)N(CC1(N2CCN(Cc3ccc(C(F)(F)F)nc3)CC2)CCOCC1)c1ccccc1 [Example 103, N-phenyl-N-((4-(4-((6-(trifluoromethyl)pyridin-3-yl)methyl)piperazin-1-yl)tetrahydro-2H-pyran-4-yl)methyl)propionamide]",–,> 500
"CCOCCN1CCN(C2(CN(C(=O)CC)c3cccc(C(F)(F)F)n3)CCC2)CC1 [Example 202, N-((1-(4-(2-ethoxyethyl)piperazin-1-yl)cyclobutyl)methyl)-N-(6-(trifluoromethyl)pyridin-2-yl)propionamide]",–,< 500
"CCC(=O)N(CC1(N2CCN(Cc3ccccc3)CC2)CC1)c1ncccc1C#N [Example 80, N-((1-(4-benzylpiperazin-1-yl)cyclopropyl)methyl)-N-(3-cyanopyridin-2-yl)propionamide]",–,< 500
"CCC(=O)N(CC1(N2CCN(Cc3ccc(F)cn3)CC2)CC1)c1ccccc1 [Example 121, N-((1-(4-((5-fluoropyridin-2-yl)methyl)piperazin-1-yl)cyclopropyl)methyl)-N-phenylpropionamide]",–,> 500
"CCC(=O)N(CC1(C2CCN(CC(C)C)CC2)CCOCC1)c1cccc(C(F)(F)F)n1 [Example 178, N-((4-(1-isobutylpiperidin-4-yl)tetrahydro-2H-pyran-4-yl)methyl)-N-(6-(trifluoromethyl)pyridin-2-yl)propionamide]",++,–
"CCC(=O)N(CC1(N2CCN(Cc3ccccc3)CC2)CCOCC1)c1ncccc1C#N [Example 58, N-((4-(4-benzylpiperazin-1-yl)tetrahydro-2H-pyran-4-yl)methyl)-N-(3-cyanopyridin-2-yl)propionamide]",++,–
"CCOCCN1CCN(C2(CN(C(=O)CC)c3ncccc3F)CCOC(C)(C)C2)CC1 (stereo not shown) [Example 169, N-((4-(4-(2-ethoxyethyl)piperazin-1-yl)-2,2-dimethyltetrahydro-2H-pyran-4-yl)methyl)-N-(3-fluoropyridin-2-yl)propionamide]",–,> 500
"CCC(=O)N(CC1(N2CCN(C(CO)c3ccccc3)CC2)CCOCC1)c1ccccn1 (stereo not shown) [Example 181, N-((4-(4-(2-hydroxy-1-phenylethyl)piperazin-1-yl)tetrahydro-2H-pyran-4-yl)methyl)-N-(pyridin-2-yl)propionamide]",–,> 500
"CCC(=O)N(CC1(N2CCN(Cc3ccccc3)CC2)CCOCC1)c1ccccc1O [Example 54, N-((4-(4-benzylpiperazin-1-yl)tetrahydro-2H-pyran-4-yl)methyl)-N-(2-hydroxyphenyl)propionamide]",–,< 500
"CCOCCN1CCN(C2(CN(C(=O)CC)c3cccc(C(F)(F)F)n3)CCSCC2)CC1 [Example 205, N-((4-(4-(2-ethoxyethyl)piperazin-1-yl)tetrahydro-2H-thiopyran-4-yl)methyl)-N-(6-(trifluoromethyl)pyridin-2-yl)propionamide]",–,< 500
"CCC(=O)N(CC1(N2CCN(Cc3ccccc3)CC2)CC1)c1cccc(C#N)n1 [Example 97, N-((1-(4-benzylpiperazin-1-yl)cyclopropyl)methyl)-N-(6-cyanopyridin-2-yl)propionamide]",–,< 500
"CCC(=O)N(CC1(N2CCN(Cc3ccc(F)c(F)c3)CC2)CCOCC1)c1ccccc1 [Example 108, N-((4-(4-(3,4-difluorobenzyl)piperazin-1-yl)tetrahydro-2H-pyran-4-yl)methyl)-N-phenylpropionamide]",–,< 500
"CCC(=O)N(CC1(N2CCN(Cc3ccc(F)cc3)CC2)CCOCC1)c1ccccc1 [Example 105, N-((4-(4-(4-fluorobenzyl)piperazin-1-yl)tetrahydro-2H-pyran-4-yl)methyl)-N-phenylpropionamide]",–,< 100

# Reference: patent US10428051B2 (priority 2015, dated 2019)
